Laboratory results published in ChEMBL document CHEMBL1148811, “N-benzoylpyrazoles are novel small-molecule inhibitors of human neutrophil elastase” (J Med Chem, 2007).

Assay: Chemical stability in aqueous buffer at PH 7.3 by spontaneous hydrolysis
Format: physicochemical

Structure (SMILES)	half-life
Cc1cccc(C(=O)n2cc(Br)cn2)c1	5.1 h
O=C(Nc1ccccc1)c1ccn(C(=O)c2ccccc2)n1	0.51 h
O=C(c1cccc([N+](=O)[O-])c1)n1cc(Cl)cn1	0.22 h
Cc1nn(C(=O)c2ccccc2F)c(C)c1Cl	5.3 h
O=C(c1ccccc1Cl)n1cc(Cl)cn1	3 h
Cc1nn(C(=O)c2ccc(Cl)cc2)c(C)c1Cl	2.6 h
Cc1nn(C(=O)c2ccc(Cl)cc2Cl)c(C)c1Cl	7.2 h
Cc1ccc(C(=O)c2ccn(C(=O)c3ccc(F)cc3)n2)c(C)c1	0.21 h
Cc1cc(C)n(C(=O)c2ccc(C)c(Br)c2)n1	25.1 h
Cc1cc([N+](=O)[O-])nn1C(=O)c1ccccc1F	0.16 h
Cc1nn(C(=O)c2ccccc2Br)c(C)c1Cl	12.5 h
Cc1cc(C)n(C(=O)c2ccc(Cl)c([N+](=O)[O-])c2)n1	5.6 h
COC(=O)c1ccnn1C(=O)c1ccc(Cl)cc1	0.29 h
COc1cc(C(=O)n2ccc(C)n2)cc(OC)c1OC	4.2 h
Cc1nn(C(=O)c2ccc(Cl)c([N+](=O)[O-])c2)c(C)c1Cl	2.2 h
O=C(c1ccccc1Cl)n1cccn1	1.1 h

Next, values leading:

half-life	Structure (SMILES)
0.1 h	Cc1ccc(C(=O)n2ccc([N+](=O)[O-])n2)cc1
0.04 h	O=C(c1ccccc1)n1cc([N+](=O)[O-])cn1
10 h	CC(=O)Nc1ccc(C(=O)n2ccc(C)n2)cc1
2.2 h	CC(C)(C)c1ccc(C(=O)n2cc(Cl)cn2)cc1
3.1 h	Cc1nn(C(=O)c2cccc(Br)c2)c(C)c1Br
2.1 h	Cc1nn(C(=O)c2ccc(Cl)cc2)c(C)c1Br
2.5 h	O=C(c1cc(F)ccc1Cl)n1cccn1
4.2 h	Cc1ccccc1C(=O)n1cc(Cl)cn1
1.2 h	Cc1ccccc1C(=O)n1cccn1
10 h	Cc1cc(C)n(C(=O)c2ccc(Cl)c(Cl)c2)n1
0.55 h	Cc1ccccc1C(=O)n1cc([N+](=O)[O-])cn1
2.1 h	Cc1ccc(C(=O)n2cc(Br)cn2)cc1
3.1 h	O=C(c1c(F)cccc1F)n1cc(Br)cn1
0.033 h	O=C(c1ccccc1)n1ccc([N+](=O)[O-])n1
6.2 h	Cc1ccccc1C(=O)n1cc(Br)cn1
1.6 h	O=C(c1ccc(F)cc1)n1cc(Cl)cn1
1.1 h	O=C(c1ccc(Cl)c(Cl)c1)n1cccn1
0.73 h	O=C(c1cc(F)c(F)cc1Cl)n1cc(Br)cn1
